Converted amounts (≈) assume the structure as drawn. Like-named read-outs stand apart in the source and are kept apart here.
What was measured:
[1] = system: VRE; assay: MIC against VRE; type: cell-based, Enterococcus faecalis
Procedure: In a 12×75 mm borosilicate glass culture tube, 1 mL of cell suspension was added. Then, compound 7 was added to the cells, and the samples were mixed using a vortex mixer. […] The samples were incubated overnight at 37° C. on a rotary shaking incubator at 100 rpm.

[2] = system: MRSA; assay: MIC of a compound of the invention and ampicillin, alone and in combination; type: cell-based
Text: Compounds of the invention can increase the potency of antibiotics. […] The ability of compounds of the invention to synergize with structurally and mechanistically unrelated antibiotics can be a result of the inhibition of bacterial efflux.

[3] = system: U-87 MG (human brain gliobastoma); assay: Light-activated killing of cell lines (IC50 with/without light); type: cell-based
Procedure: (§1) TABLE 15 depicts the IC50 of compounds in the presence or absence of light for human cell lines. The cell lines used were HeLa (human cervical adenocarcinoma), U-87 MG (human brain gliobastoma), MES-SA (human uterine sarcoma), MES-SA/D×5 (human uterine sarcoma grown in presence of doxorubicin), NCI-H441 (human lung papillary adenocarcinoma), A549 (human lung carcinoma), WI-38 (human embryonic lung normal), MCF7 (human breast adenocarcinoma), SW1088 (human brain astrocytoma), B16F10 (mouse skin melanoma), NIH-3T3 (mouse fibroblast), and Jurkat (human lymphoblastoma). “1-Sol” in TABLE 15 was generated by dissolving compound 1 and potassium hydroxide at a 1:1 ratio in a DMSO/water solution. The cells were irradiated with continuous white light using a LumaCare™ light source for 2 minutes at a distance of 6.5 cm from the cells.

[4] = system: MES-SA/Dx5 (human uterine sarcoma grown in presence of doxorubicin); assay: as above; type: cell-based; details: Homo sapiens
Procedure: as §1

[5] = system: MRSA; assay: Minimum bactericidal concentration (MBC) with and without white light; type: cell-based, S. aureus; details: Staphylococcus aureus, light or radiation study
Procedure: The bacterial media was inoculated with bacteria and incubated overnight. The bacterial cultures were diluted to 5×10^8 CFU/mL using a McFarland latex turbidity standard (0.5). Compound 1 was diluted with sterile DMSO, which was added to the cell suspension in glass culture tubes. The cells were then incubated for 30 minutes at 37° C. on a rotary shaking incubator at 150 rpm. 500 μL of the treated cell suspension was added to a well on a sterile ceramic drop plate. Non-coherent white light from a Lumacare™ LC-122 unit was used to irradiate the samples. The end of the light probe was placed 3 cm above the sample well, perpendicular to the surface of the sample, and light was applied for 2 minutes (15 seconds light, 15 seconds dark). 200 μL of the irradiated sample was transferred to a 96-well plastic microtiter plate and five ten-fold dilutions were made in the media. 10 μL of each dilution was dripped onto an agar media plate and was allowed to streak down the plate by tilting the plate down. The agar plates were incubated at 37° C. overnight and colony counts were performed to calculate the CFU/mL.
TABLE 14 details the MBC values of compounds 1-6 against MRSA with and without irradiation with white light. Irradiation involved treatment with a LumaCare™ light source at 3 cm from media for 1 min.

[6] = system: S. aureus (ATCC 29213); assay: microbe, parasite or virus in culture; type: cell-based; details: for MIC: Staphylococcus aureus
Procedure: Each mixture was incubated at 37° C. on a rotary shaking incubator for about 16 hours. MTT was then added to assess the viability of the cells (at 10% well volume). […] The cells were then streaked onto a TSA plate and incubated overnight at 37° C. These steps were repeated to reach a total of 30 exposures.

[7] = MIC against MRSA isolates; type: cell-based, S. aureus; details: Staphylococcus aureus
Procedure: The MICs of S. aureus ATCC 33591, BAA-44, BAA-1707, BAA-1717, BAA-1720, BAA-1747, BAA-1754, BAA-1761, BAA-1763, BAA-1764, and BAA-1766 were measured using a cell concentration of about 5×10^5 colony forming units (CFU)/mL. In a 96-well microtiter plate, two-fold dilutions were made of each drug (starting with 100 μM) in 100 μL of a cell suspension in trypticase soy broth (TSB). The samples were incubated overnight at 37° C. on a rotary shaking incubator set at 100 revolutions per minute (rpm) and were visually inspected for turbidity. A 20% well-volume of 3-(4,5-dimethylthiazol-2-yl)-2,5-diphenyltetrazolium bromide (MTT reagent, 5 mg/mL) was added, and the samples were incubated for about 20 minutes. The MICs were determined as the lowest concentration at which full visual inhibition was observed by the unaided eye.

[8] = system: S. aureus (ATCC 29213); assay: MIC against drug sensitive S. aureus; type: cell-based; details: Staphylococcus aureus, ATCC29213; ATCC 29213; read-out: S. aureus MIC

What does the source list for `CC1(C)S[C@@H]2[C@H](NC(=O)[C@H](N)c3ccccc3)C(=O)N2[C@H]1C(=O)O` [Ampicilin, ampicillin]?
S/R ([1]; TABLE 24): S; MIC ([1]; common antibiotics, TABLE 24): 2 to 4 µg/mL; fold decrease in concentration in combination ([2]; combination versus alone): 8 fold; concentration needed for full killing in combination ([2]; compound used in combination with ampicillin): about 572 μM; mean inhibitory concentration (MIC), alone ([2]; single agent): about 4579 μM

For `Fc1ccc(/C=C/c2[nH]c3ccccc3c2/C=C/c2ccc(F)cc2)cc1` [Compound 4], which IC50 ([3]; 2 min, white light 2 minutes, read-out: Compound + light IC50) is on record?
Its IC50 is 1.01 ± 0.16 µM.

And the IC50 ([3]; no light, read-out: Compound IC50)?
Its IC50 is 42.6 ± 5.53 µM.

What about the IC50 ([4]; MES-SA/Dx5, 2 min, MES-SA/Dx5 (no doxorubicin), white light 2 minutes, read-out: Compound + light IC50) of the same molecule?
Its IC50 is 1.31 ± 0.51 µM.

What about the IC50 ([4]; MES-SA/Dx5, 2 min, MES-SA/Dx5 + doxorubicin, white light 2 minutes, read-out: Compound + light IC50) of the same molecule?
The IC50 was 0.67 ± 0.01 µM.

What about the IC50 ([4]; MES-SA/Dx5, MES-SA/Dx5 (no doxorubicin), no light, read-out: Compound IC50) of the same molecule?
Its IC50 is 57.2 ± 10.3 µM.

And the IC50 ([4]; MES-SA/Dx5, MES-SA/Dx5 + doxorubicin, no light, read-out: Compound IC50)?
Its IC50 is 40.9 ± 1.36 µM.

And the MBC ([5]; 1 min, LumaCare light source at 3 cm from media for 1 min, read-out: MBC with irradiation)?
Its MBC is 0.5 µM (≈ 0.179 µg/mL).

And the MBC ([5]; no irradiation, read-out: MBC in the dark)?
The MBC was 100 µM (≈ 35.7 µg/mL).

Which results are given for `CCn1cc(C(=O)O)c(=O)c2cc(F)c(N3CCNCC3)cc21` [Norfloxacin, reference compound]?
Resistance Evolved [6]: Yes; MIC ([6]; ATCC29213, read-out: Final MIC Apr. 16, 2015): > 16 µM; MIC ([6]; ATCC29213, read-out: Initial MIC Mar. 10, 2015): 2 µM (≈ 0.639 µg/mL); MIC ([1]; Enterococcus, TABLE 23, read-out: VRE MIC): 2.5 µg/mL (≈ 7.83 µM); MIC ([1]; Enterococcus, common antibiotics, TABLE 24, read-out: MIC): 1 µg/mL (≈ 3.13 µM); S/R ([1]; TABLE 24): S; MIC ([7]; MRSA (ATCC BAA-44), TABLE 21, read-out: MRSA MIC): 100 µg/mL (≈ 313 µM); MIC ([7]; antibiotics, MRSA isolate ATCC 33591, read-out: MIC): 25 µg/mL (≈ 78.3 µM); MIC ([7]; antibiotics, MRSA isolate ATCC BAA-44, read-out: MIC): 100 µg/mL (≈ 313 µM); MIC ([7]; antibiotics, MRSA isolate ATCC BAA-1707, read-out: MIC): < 3.1 µg/mL; MIC ([7]; antibiotics, MRSA isolate ATCC BAA-1720, read-out: MIC): > 100 µg/mL; MIC ([7]; antibiotics, MRSA isolate ATCC BAA-1747, read-out: MIC): 6.3 µg/mL (≈ 19.7 µM); MIC ([7]; antibiotics, MRSA isolate ATCC BAA-1754, read-out: MIC): < 3.1 µg/mL; MIC ([7]; antibiotics, MRSA isolate ATCC BAA-1761, read-out: MIC): > 100 µg/mL; MIC ([7]; antibiotics, MRSA isolate ATCC BAA-1763, read-out: MIC): > 100 µg/mL; MIC ([7]; antibiotics, MRSA isolate ATCC BAA-1764, read-out: MIC): < 3.1 µg/mL; MIC ([7]; antibiotics, MRSA isolate ATCC BAA-1766, read-out: MIC): < 3.1 µg/mL; MIC [8]: 1.25 to 2.5 µg/mL (≈ 3.91 to 7.83 µM)

— patent publication US9834514B2, “Antibiotic sensitivity-restoring and photosensitive agents” (New Mexico Tech Research Foundation, priority 2015, dated 2017)
